In patent publication US4368203A, “Antibiotics and derivatives thereof having β-lactamase inhibitory activity and production thereof” (priority 1977, dated 1983):
Converted amounts (≈) assume the structure as drawn. “Also recorded” adds a separate entry of the source. Read-outs that look alike come from different tables or passages of the source.

What was measured:
[1] = system: Alcaligenes faecalis B-326; assay: MIC, broth dilution method; assay type: cell-based; conditions: Alcaligenes faecalis, B326, read-out: Minimum inhibitory concentration
Description: (§1) Sodium salt of the antibiotic PS-7 was dissolved and diluted with the BRAIN HEART INFUSION BROTH "Eiken" at a concentration between 5 μg/ml and 100 μg/ml. The solution was further diluted with the same medium to obtain a series of geometric concentrations. To the serial dilutions were added the seed cultures prepared by shaking culture of various test microorganisms shown in Tab. 5 in the BRAIN HEART INFUSION GROTH at 28° C. for 18 hours, the final cell count being about 1×10^5 /ml. […] The lowest concentration at which no cell growth was observed was the minimum inhibitory concentration of the antibiotic PS-7 on the test microorganism. […] . The minimum inhibitory concentrations on test strains were determined in the same manner as mentioned above. […] For the comparison, the results on the known antibiotics Cephazolin and Cefoxitin are also given in the same table.

Citrobacter freundii E-9 = assay: MIC, broth dilution method; assay type: cell-based; conditions: Citrobacter freundii, read-out: Minimum inhibitory concentration
Description: as §1

[2] = system: Enterobacter cloacae E-16; assay: MIC, broth dilution method; assay type: cell-based; conditions: Enterobacter cloacae, read-out: Minimum inhibitory concentration
Description: Sodium salt of the antibiotic PS-7 was dissolved and diluted with the BRAIN HEART INFUSION BROTH "Eiken" at a concentration between 5 μg/ml and 100 μg/ml. The solution was further diluted with the same medium to obtain a series of geometric concentrations. To the serial dilutions were added the seed cultures prepared by shaking culture of various test microorganisms shown in Tab. 5 in the BRAIN HEART INFUSION GROTH at 28° C. for 18 hours, the final cell count being about 1×10^5 /ml. […] The lowest concentration at which no cell growth was observed was the minimum inhibitory concentration of the antibiotic PS-7 on the test microorganism. […] The minimum inhibitory concentrations on test strains were determined in the same manner as mentioned above.

[3] = Acute toxicity, intraperitoneal administration; assay type: in vivo, DDY male mice
[4] = system: Gram-positive and Gram-negative bacteria; assay: Antibiotic spectra (summary in words); assay type: cell-based; conditions: for Antibiotic activity against Gram-negative bacteria resistant to β-lactam antibiotics: genera Citrobacter, Proteus, Klebsiella, Enterobacter, Serratia as named at the place; for Antibiotic activity against Gram-positive bacteria: genera Staphylococcus, Diplococcus, Streptococcus, Bacillus as named at the place
Proteus vulgaris P-5 = assay: Potentiating and synergistic effect, pulp disc inhibition zone on agar plate; assay type: cell-based; conditions: for Diameter of inhibitory zone, No addition / Diameter of inhibitory zone, Cephaloridine-added: Table 8; for Diameter of inhibitory zone, No addition: medium without cephaloridine; for Diameter of inhibitory zone, Cephaloridine-added: cephaloridine in the agar
Description: (§2) 10 ml of 2.5 folds diluted nutrient agar (pH 7.0) containing 50 μg/ml of penicillin G or cephaloridine was seeded with the β-lactamase producing and β-lactam-resistant microorganisms and poured in a 9 cm Petri dish to provide the bio-assay agar plate. […] A control assay plate was similarly prepared without penicillin G or cephaloridine. As reference antibiotics, 10,000 μg/ml of penicillin G or 20 μl of cephaloridine were disc-assayed under the same conditions.
(§3) Cepholoridine was added to a 2.5-times diluted nutrient agar, pH 7.0 and the medium was inoculated with a β-lactam-producing strain that produceds β-lactamase. Ten ml of the medium was spread and solidified in a petri dish of 9 cm in diameter to prepare an assay plate. […] Each 20 μl of the solution and its 2- and 4-times diluted solutions was soaked in a pulp disc of 8 mm in diameter. To the surface of the above nutrient agar was placed the pulp disc and the size of the growth inhibitory zone around the disc was examined after incubation at 35° C. for 18 hours. […] In addition, for the comparison, a similar experiment was also performed with a pulp disk soaked with 20 μl of 10,000 μg/ml Penicillin G or Cepholoridine solution in place of the antibiotic PS-7.

Solubility = assay type: physicochemical; conditions: antibiotic (sodium salt); for Solubility in organic solvents: solvents named in the value
Text: The results are as shown as below:
The results are as shown below:

[5] = system: Staphylococcus aureus Smith; assay: In vivo activity in intraperitoneally infected mice; design: species or system DDY male mice; conditions: for ED50: Staphylococcus aureus, sc, mice infected i.p. with 5×10^5 cells/mouse, subcutaneous injection just after infection, read-out: 50% curative dose (CD50); for Therapeutic effect in infected mice: mice infected with pathogenic Gram-positive bacteria
Description: Soon after infection, an aqueous solution of the antibiotic PS-5 sodium salt preparation was subcutaneously injected.
Activity of the antibiotic PS-7 obtained above was determined using mice infected with Staphylococcus aureus Smith at 5×10^5 cells a mouse intraperitoneally. Sodium salt of the antibiotic PS-7 was administered to the mice subcutaneously immediately after the infection.
The tritylation product of antibiotic PS-6 was subcutaneously injected just after infection. The 50% curative dose on male DDY mice (SHIZUOKA) was 5.5 mg/kg.
The tritylation product of antibiotic PS-7 was subcutaneously injected just after infection. The 50% curative dose on make DDY mice (SHIZUOKA) was 4.5 mg/kg.

[6] = Stability (general statements); assay type: physicochemical; conditions: general statement
[7] = system: β-lactamase-producing, β-lactam-resistant bacteria; assay: Increase of the antibiotic activity of other antibiotics (summary in words); assay type: cell-based; conditions: β-lactamase-producing bacteria such as Proteus vulgaris, Serratia marcescens
Description: as §2, §3

[8] = disc x2 (2-times diluted PS-7 solution)
[9] = disc x4 (4-times diluted PS-7 solution)

SMILES: CCC1C(=O)N2C(C(=O)O)=C(SC=CNC(C)=O)CC12 (centres unmarked) [Antibiotic PS-7]
- MIC ([1]; Table 7, no unit in the head): 0.78 µg/mL (≈ 2.63 µM)
- MIC (Citrobacter freundii E-9; E9, Table 7, no unit in the head, lactamase-producing strain): 3.13 µg/mL (≈ 10.6 µM)
- MIC ([2]; E16, Table 7, no unit in the head, lactamase-producing strain): 6.25 µg/mL (≈ 21.1 µM)
- Acute toxicity ([3]; DDY male mice, dose not given): No acute toxicity
- Acute toxicity ([3]; mice, 500 mg/kg): no acute toxicity
- Antibiotic activity against Gram-negative bacteria of the genus Alcaligenes (Comamonas) [4]: high antimicrobial activity
- Antibiotic activity against Gram-negative bacteria resistant to β-lactam antibiotics [4]: high antimicrobial activity
- Antibiotic activity against Gram-positive bacteria [4]: very high antimicrobial activity
- Diameter of inhibitory zone, No addition (Proteus vulgaris P-5; disc x1 (undiluted PS-7 solution, 50 μg/ml or 29 μg/ml, 20 μl)): 0.0 mm
- Diameter of inhibitory zone, Cephaloridine-added (Proteus vulgaris P-5; disc x1 (undiluted PS-7 solution, 20 μl)): 19.0 mm
- Diameter of inhibitory zone, Cephaloridine-added (Proteus vulgaris P-5; [8]): 15.0 mm
- Diameter of inhibitory zone, No addition (Proteus vulgaris P-5; [8]): 0.0 mm
- Diameter of inhibitory zone, Cephaloridine-added (Proteus vulgaris P-5; [9]): 11.0 mm
- Diameter of inhibitory zone, No addition (Proteus vulgaris P-5; [9]): 0.0 mm
- Solubility in water (Solubility): Soluble in water at pH6-9
- Solubility in organic solvents (Solubility): practically insoluble in benzene, acetone and ethyl acetate
- ED50 [5]: 7.5 mg/kg
- Therapeutic effect in infected mice [5]: marked therapeutic effect
- Stability [6]: somewhat labile; also recorded: more stable in the salt form than in the free acid state
- Synergistic enhancement of the activity of penicillin G or cephaloridine (β-lactam antibiotics) [7]: ability to enhance antimicrobial activity of other antibiotics; also recorded: evident enhancement of antimicrobial activity

SMILES: CC(=O)NCCSC1=C(C(=O)O)N2C(=O)C(C(C)C)C2C1 (centres unmarked) [Antibiotic PS-6]
- MIC ([1]; Table 5, 35° C. 20 hours): 1.56 µg/mL (≈ 4.99 µM)
- MIC (Citrobacter freundii E-9; E9, 20 h, Table 5, betalactamase producer): 12.5 µg/mL (≈ 40 µM)
- MIC ([2]; E16, 20 h, Table 5, betalactamase producer): 25 µg/mL (≈ 80 µM)
- Acute toxicity ([3]; mice, 500 mg/kg): no toxicity
- Acute toxicity ([3]; mice, 500 mg/kg, listed as PS-6 sodium salt): No acute toxicity
- Antibiotic activity against Gram-negative bacteria of the genera Klebsiella, Proteus [4]: good activity
- Antibiotic activity against Gram-negative bacteria of the genus Alcaligenes (Comamonas) [4]: very strong activity
- Antibiotic activity against Gram-negative bacteria resistant to β-lactam antibiotics [4]: strong activity
- Antibiotic activity against Gram-positive bacteria [4]: very strong activity
- zone of inhibition at 240 µg/mL (Proteus vulgaris P-5; Proteus vulgaris, P5, Table 6, plate without penicillin G or cephaloridine, 8 mm disc, 20 μl, PS-6 240 μg/ml, reference antibiotics 10,000 μg/ml, 35° C. 18 hours, read-out: Inhibition zone, Control): 14 mm
- Inhibition zone, with cephaloridine (Proteus vulgaris P-5; Table 6, agar containing 50 μg/ml of cephaloridine, disc 20 μl, PS-6 240 μg/ml, reference antibiotics 10,000 μg/ml): 28.5 mm
- Inhibition zone, with penicillin G (Proteus vulgaris P-5; Table 6, agar containing 50 μg/ml of penicillin G, disc 20 μl, PS-6 240 μg/ml, reference antibiotics 10,000 μg/ml): 30.0 mm
- Solubility in water (Solubility): soluble in water at pH 6 to 9
- Solubility in organic solvents (Solubility): substantially insoluble in benzene, acetone and ethylacetate
- ED50 [5]: 5.2 mg/kg
- Therapeutic effect in infected mice [5]: marked therapeutic effect
- Stability [6]: somewhat labile; also recorded: more stable in the salt form than in the free acid state
- Synergistic enhancement of the activity of penicillin G or cephaloridine (β-lactam antibiotics) [7]: showed clearly the synergistic effect; also recorded: ability to increase the antibiotic activity of other antibiotics
